These results are taken from ChEMBL document CHEMBL3621195, “Analogues of the marine alkaloids oroidin, clathrodin, and hymenidin induce apoptosis in human HepG2 and THP-1 cancer cells” (Medchemcomm, 2015).

Bounds are passed on as bounds.

Assay [1] deals with HepG2. Kind of assay: Induction of apoptosis in human HepG2 cells at 50 uM incubated for 24 hrs by Annexin V-FITC and propidium iodide staining based microcapillary flow cytometry. The format is functional.
In assay [2] the test system is HepG2. Nature of the assay: Induction of apoptosis in human HepG2 cells incubated for 24 hrs by Annexin V-FITC and propidium iodide staining based microcapillary flow cytometry. The format is functional, cell-based. The note with it: HepG2, 24 h.
The test system of assay [3] is THP-1. Kind of assay: Induction of apoptosis in human THP1 cells incubated for 24 hrs by Annexin V-FITC and propidium iodide staining based microcapillary flow cytometry. The format is functional, cell-based. As to conditions: THP-1, 24 h.
Assay [4] has as its system THP-1. Nature of the assay: Induction of apoptosis in human THP1 cells at 50 uM incubated for 24 hrs by Annexin V-FITC and propidium iodide staining based microcapillary flow cytometry. In kind it is functional.
The subject of assay [5] is THP-1. Nature of the assay: Induction of cell cycle arrest in human THP1 cells assessed accumulation at subG1 phase at 25 uM incubated for 24 hrs by propidium iodide staining based microcapillary flow cytometry (reference value: 2 +/- 1%). In kind it is functional.
The test system of assay [6] is THP-1. Kind of assay: Induction of cell cycle arrest in human THP1 cells assessed accumulation at subG1 phase at 25 uM incubated for 48 hrs by propidium iodide staining based microcapillary flow cytometry (reference value: 2 +/- 1%). In kind it is functional.

`Nc1nc2c(s1)C[C@@H](NC(=O)c1cc3ccccc3[nH]1)CC2` gave an Activity in assay [1] of 27%.

`Cl.Cl.Nc1nc2c(s1)C[C@@H](NC(=O)[C@@H]1CCCN1)CC2` gave an Activity in assay [1] of 22%.

Turning to `Cn1cccc1C(=O)N[C@H]1CCc2nc(N)sc2C1`, in assay [1], the Activity is on record as 20%. Still for that read-out and setting: the figure for `Nc1nc2c(s1)C[C@@H](NC(=O)c1ccco1)CC2` is 29%; for `Nc1nc2c(s1)C[C@@H](NCc1ccc[nH]1)CC2` it is 30%.

`Nc1nc2c(s1)CC(CNC(=O)c1ccc[nH]1)CC2` (stereo not given) registered an Activity in assay [1] of 20%. Still for that read-out and setting: for `Nc1nc2c(s1)CC(CNC(=O)c1cc(Br)c(Br)[nH]1)CC2` (stereo not given) the value was 23%; for `Nc1nc2c(s1)CC(CNC(=O)c1cc3ccccc3[nH]1)CC2` (stereo not given), 32%. In assay [1], `CC(C)(C)OC(=O)N1CCC[C@H]1C(=O)NCC1CCc2nc(N)sc2C1` (stereo not given in full) had an Activity of 23%. The same measure, in the same setting: the figure for `Cl.Cl.Nc1nc2c(s1)CC(CNC(=O)[C@@H]1CCCN1)CC2` (stereo not given in full) is 27%; for `Nc1nc2c(s1)C[C@@H](NC(=O)c1ccc[nH]1)CC2` it is 23%. On the same count and under the same terms, for `Nc1nc2c(s1)C[C@@H](NC(=O)c1cc(Br)c[nH]1)CC2` the value was 28%; for `Nc1nc2c(s1)C[C@@H](NC(=O)c1cc(Br)c(Br)[nH]1)CC2`, 35%. Regarding `CNc1nc(-c2cccc(NC(=O)c3cc4ccccc4[nH]3)c2)c[nH]1.Cl`, the Activity is recorded as 91% in assay [1], 87% in assay [4], 18% in assay [5] and 49% in assay [6]. Also, the figures for the EC50 in assay [2] and in assay [3] were 20 µM and 24 µM, respectively. `CNc1nc(-c2cccc(NC(=O)c3cc4ccccc4[nH]3)c2)cn1C(=O)OC(C)(C)C` gave an Activity in assay [1] of 90%. The same measure, in the same setting: for `Cl.Nc1nc(-c2cccc(NC(=O)c3ccc[nH]3)c2)c[nH]1` the value was 13%; for `CC(C)(C)OC(=O)n1cc(-c2cccc(NC(=O)c3cc[nH]c3)c2)nc1N`, 19%; for `CC(C)(C)OC(=O)n1cc(-c2cccc(NC(=O)c3cc4ccccc4[nH]3)c2)nc1N`, 75%. Same read-out and setting: for `CC(C)(C)OC(=O)n1cc(-c2cccc(NC(=O)c3c[nH]c4ccccc34)c2)nc1N` the value was 62%. The same measure, in the same setting: for `Cl.Nc1nc(-c2cccc(NC(=O)c3c[nH]c4ccccc34)c2)c[nH]1` the value was 55%; for `CNc1nc(-c2cccc(NC(=O)c3ccco3)c2)cn1C(=O)OC(C)(C)C`, 44%. With `CC(C)(C)OC(=O)n1cc(-c2cccc(NC(=O)c3ccc[nH]3)c2)nc1N`, in assay [1], the Activity was 21%. Same read-out and setting: for `Cl.Nc1nc(-c2cccc(NC(=O)c3cc4cc(OCc5ccccc5)ccc4[nH]3)c2)c[nH]1` the value was 50%; for `Nc1nc(/C=C/CNC(=O)c2cc3ccccc3[nH]2)c[nH]1`, 36%; for `Nc1nc(/C=C/CNC(=O)c2cc3cc(F)ccc3[nH]2)c[nH]1`, 38%. The same measure, in the same setting: the figure for `CC(C)(C)OC(=O)n1cc(-c2cccc(NC(=O)c3cc4cc(OC(F)(F)F)ccc4[nH]3)c2)nc1N` is 43%; for `CC(C)(C)OC(=O)n1cc(-c2cccc(NC(=O)c3cc4cc(O)ccc4[nH]3)c2)nc1N` it is 56%. Take `Cl.Nc1nc(-c2cccc(NC(=O)c3cc4cc(F)ccc4[nH]3)c2)c[nH]1`: the Activity in assay [1] turned out to be 98%; in assay [4], 87%; in assay [5] it was 36%; in assay [6], 41%. Also, the results for the EC50 in assay [2] and in assay [3] were 13 µM and 23 µM, respectively. On to `Cl.Nc1nc(-c2cccc(NC(=O)c3cc4cc(Cl)ccc4[nH]3)c2)c[nH]1`, for which the Activity came out at 93% in assay [1], 87% in assay [4], 26% in assay [5] and 40% in assay [6]. Besides, the EC50 in assay [2] is 16 µM; in assay [3], 24 µM. In the case of `COc1ccc2[nH]c(C(=O)Nc3cccc(-c4c[nH]c(N)n4)c3)cc2c1.Cl`, the Activity in assay [1] was 78%; in assay [4], 87%; in assay [5] it was 45%; in assay [6] it was 60%. For the same molecule, the EC50 was 18 µM in assay [2] and 20 µM in assay [3]. With `Cl.Nc1nc(-c2cccc(NC(=O)c3cc4sccc4[nH]3)c2)c[nH]1`, the figures for the Activity in assay [1] and in assay [4] were 96% and 12%, respectively. The EC50 in assay [2] was 42 µM; in assay [3], over 50 µM.

In assay [1], `Nc1nc(/C=C/CNC(=O)c2cc(Br)c[nH]2)c[nH]1` registered an Activity of 25%.

`Nc1nc(CCCNC(=O)c2ccc[nH]2)c[nH]1` gave an Activity in assay [1] of 25%. Same read-out and setting: the figure for `Nc1nc(/C=C/CNC(=O)c2ccccc2)c[nH]1` is 33%; for `COc1ccc2[nH]c(C(=O)Nc3cccc(-c4cn(C(=O)OC(C)(C)C)c(N)n4)c3)cc2c1` it is 87%; for `CC(C)(C)OC(=O)n1cc(-c2cccc(NC(=O)c3cc4cc(F)ccc4[nH]3)c2)nc1N` it is 89%. `CC(C)(C)OC(=O)n1cc(-c2cccc(NC(=O)c3cc4sccc4[nH]3)c2)nc1N` showed an Activity in assay [1] of 86%. With `CNC1=NC(c2cccc(NC(=O)c3ccco3)c2)CN1C(=O)OC(C)(C)C` (stereo not given), the Activity in assay [1] was 32%. Still for that read-out and setting: for `CC(C)(C)OC(=O)n1cc(-c2cccc(NC(=O)c3cc4cc(OCc5ccccc5)ccc4[nH]3)c2)nc1N` the value was 81%; for `CC(C)(C)OC(=O)n1cc(-c2cccc(NC(=O)c3cc4cc(Cl)ccc4[nH]3)c2)nc1N`, 91%; for `CNC1=NC(c2cccc(NC(=O)c3ccc[nH]3)c2)CN1C(=O)OC(C)(C)C` (stereo not given), 31%. On the same count and under the same terms, the figure for `CNC1=NC(c2cccc(NC(=O)c3cc4ccccc4[nH]3)c2)CN1C(=O)OC(C)(C)C` (stereo not given) is 74%. For `Cl.Cl.Nc1nc(CN2CCN(C(=O)c3ccc[nH]3)CC2)c[nH]1`, the Activity in assay [1] turned out to be 27%.

`Cl.Cl.Nc1nc(CN2CCN(Cc3ccc[nH]3)CC2)c[nH]1`: the Activity in assay [1] is on record as 34%. Still for that read-out and setting: the figure for `Cl.Cl.Cl.Nc1nc(CN2CCN(C(=O)[C@@H]3CCCN3)CC2)c[nH]1` is 28%. Still for that read-out and setting: for `Cl.Cl.Nc1nc(CN2CCN(C(=O)c3cc4ccccc4[nH]3)CC2)c[nH]1` the value was 32%; for `Cl.Cl.Nc1nc(CN2CCN(C(=O)c3c[nH]c4ccccc34)CC2)c[nH]1`, 30%; for `Cl.Cl.Nc1nc(CN2CCN(Cc3ccccc3)CC2)c[nH]1`, 32%.

Consider `Cl.Cl.Nc1nc(CN2CCN(C(=O)c3cccnc3)CC2)c[nH]1`, for which the Activity in assay [1] was 28%. Still for that read-out and setting: the figure for `O=C(c1ccc[nH]1)N1CCN(Cc2c[nH]cn2)CC1` is 23%; for `Nc1ncc(CC(=O)N2CCN(C(=O)c3ccc[nH]3)CC2)s1` it is 23%; for `Nc1ncc(C(=O)N2CCN(C(=O)c3ccc[nH]3)CC2)s1` it is 20%. The same measure, in the same setting: the figure for `CC(C)(C)OC(=O)n1cc(-c2cccc(NCc3ccc[nH]3)c2)nc1N` is 40%. In assay [1], `CC(C)(C)OC(=O)N1CCCC1C(=O)Nc1cccc(-c2cn(C(=O)OC(C)(C)C)c(N)n2)c1` (single isomer, unassigned) came in with an Activity of 18%. Turning to `Cl.Cl.Nc1nc(-c2cccc(NC(=O)C3CCCN3)c2)c[nH]1` (single isomer, unassigned), in assay [1], the Activity stood at 16%. Same read-out and setting: for `Nc1ncc(/C=C/CNC(=O)c2ccc[nH]2)[nH]1` [CLATHRODIN] the value was 27%; for `Nc1ncc(/C=C/CNC(=O)c2cc(Br)c(Br)[nH]2)[nH]1` [OROIDIN], 35%.
